Test results reported in ChEMBL document CHEMBL3616371, “Synthesis of BF₃ catalyzed Mannich derivatives with excellent ee from phenylpropanolamine, study of their antimicrobial activity and molecular docking” (2015).

Assays:
Pseudomonas aeruginosa [1] = test: Antibacterial activity against Pseudomonas aeruginosa assessed as growth inhibition at 1 mg/well after 24 hrs by Well method; type: functional
[2] = tested on: Staphylococcus epidermidis; test: Antibacterial activity against Staphylococcus epidermidis assessed as growth inhibition at 1 mg/well after 24 hrs by Well method; type: functional
Pseudomonas aeruginosa [3] = test: Antibacterial activity against Pseudomonas aeruginosa after 24 hrs by two fold serial dilution method; type: functional
Klebsiella pneumoniae [4] = test: Antibacterial activity against Klebsiella pneumoniae after 24 hrs by two fold serial dilution method; type: functional
Shigella flexneri [5] = test: Antibacterial activity against Shigella flexneri assessed as growth inhibition at 1 mg/well after 24 hrs by Well method; type: functional
Micrococcus luteus [6] = test: Antibacterial activity against Micrococcus luteus assessed as growth inhibition at 1 mg/well after 24 hrs by Well method; type: functional
Salmonella typhimurium [7] = test: Antibacterial activity against Salmonella typhimurium after 24 hrs by two fold serial dilution method; type: functional, Salmonella enterica subsp. enterica serovar Typhimurium; settings: Salmonella enterica
Bacillus subtilis [8] = test: Antibacterial activity against Bacillus subtilis assessed as growth inhibition at 1 mg/well after 24 hrs by Well method; type: functional
Shigella flexneri [9] = test: Antibacterial activity against Shigella flexneri after 24 hrs by two fold serial dilution method; type: functional
Klebsiella pneumoniae [10] = test: Antibacterial activity against Klebsiella pneumoniae assessed as growth inhibition at 1 mg/well after 24 hrs by Well method; type: functional
Proteus vulgaris [11] = test: Antibacterial activity against Proteus vulgaris after 24 hrs by two fold serial dilution method; type: functional
Klebsiella aerogenes [12] = test: Antibacterial activity against Enterobacter aerogenes after 24 hrs by two fold serial dilution method; type: functional
Micrococcus luteus [13] = test: Antibacterial activity against Micrococcus luteus after 24 hrs by two fold serial dilution method; type: functional
Klebsiella aerogenes [14] = test: Antibacterial activity against Enterobacter aerogenes assessed as growth inhibition at 1 mg/well after 24 hrs by Well method; type: functional
Staphylococcus aureus [15] = test: Antibacterial activity against methicillin-resistant Staphylococcus aureus assessed as growth inhibition at 1 mg/well after 24 hrs by Well method; type: functional
Staphylococcus aureus [16] = test: Antibacterial activity against methicillin-resistant Staphylococcus aureus after 24 hrs by two fold serial dilution method; type: functional
Proteus vulgaris [17] = test: Antibacterial activity against Proteus vulgaris assessed as growth inhibition at 1 mg/well after 24 hrs by Well method; type: functional
[18] = tested on: Staphylococcus epidermidis; test: Antibacterial activity against Staphylococcus epidermidis after 24 hrs by two fold serial dilution method; type: functional
Bacillus subtilis [19] = test: Antibacterial activity against Bacillus subtilis after 24 hrs by two fold serial dilution method; type: functional
Staphylococcus aureus [20] = test: Antibacterial activity against Staphylococcus aureus assessed as growth inhibition at 1 mg/well after 24 hrs by Well method; type: functional
Staphylococcus aureus [21] = test: Antibacterial activity against Staphylococcus aureus after 24 hrs by two fold serial dilution method; type: functional
Salmonella typhimurium [22] = test: Antibacterial activity against Salmonella typhimurium assessed as growth inhibition at 1 mg/well after 24 hrs by Well method; type: functional, Salmonella enterica subsp. enterica serovar Typhimurium
Malassezia pachydermatis [23] = test: Antifungal activity against Malassezia pachydermatis assessed as growth inhibition at 1 mg/well after 48 hrs by Well method; type: functional
Malassezia pachydermatis [24] = test: Antifungal activity against Malassezia pachydermatis after 48 to 72 hrs by two fold serial dilution method; type: functional
Candida albicans [25] = test: Antifungal activity against Candida albicans assessed as growth inhibition at 1 mg/well after 48 hrs by Well method; type: functional
Candida albicans [26] = test: Antifungal activity against Candida albicans after 48 to 72 hrs by two fold serial dilution method; type: functional
Aspergillus flavus [27] = test: Antifungal activity against Aspergillus flavus assessed as growth inhibition at 1 mg/well after 48 hrs by Well method; type: functional
Aspergillus flavus [28] = test: Antifungal activity against Aspergillus flavus after 48 to 72 hrs by two fold serial dilution method; type: functional

| SMILES | inhibition zone (IZ) (Pseudomonas aeruginosa [1]) [mm] | inhibition zone (IZ) [2] [mm] | MIC (Pseudomonas aeruginosa [3]) [µg/mL] | inhibition zone (IZ) (Shigella flexneri [5]) [mm] | inhibition zone (IZ) (Micrococcus luteus [6]) [mm] | MIC (Salmonella typhimurium [7]) [µg/mL] | inhibition zone (IZ) (Bacillus subtilis [8]) [mm] | MIC (Shigella flexneri [9]) [µg/mL] | MIC (Proteus vulgaris [11]) [µg/mL] | MIC (Klebsiella aerogenes [12]) [µg/mL] | MIC (Micrococcus luteus [13]) [µg/mL] | inhibition zone (IZ) (Klebsiella aerogenes [14]) [mm] | inhibition zone (IZ) (Staphylococcus aureus [15]) [mm] | MIC (Staphylococcus aureus [16]) [µg/mL] | inhibition zone (IZ) (Proteus vulgaris [17]) [mm] | MIC [18] [µg/mL] | MIC (Bacillus subtilis [19]) [µg/mL] | inhibition zone (IZ) (Staphylococcus aureus [20]) [mm] | MIC (Staphylococcus aureus [21]) [µg/mL] | inhibition zone (IZ) (Salmonella typhimurium [22]) [mm] | also measured |
| --- | --- | --- | --- | --- | --- | --- | --- | --- | --- | --- | --- | --- | --- | --- | --- | --- | --- | --- | --- | --- | --- |
| C[C@H](NCCC(=O)c1cccc(O)c1)[C@H](O)c1ccccc1.Cl | 22 | 28 | 12.5 | 22 | 35 | 25 | 23 | 25 | 25 | 25 | 3.13 | 22 | 23 | 25 | 24 | 6.25 | 12.5 | 24 | 25 | 22 | MIC (Klebsiella pneumoniae [4]): 25 µg/mL; inhibition zone (IZ) (Klebsiella pneumoniae [10]): 24 mm |
| C[C@@H](NCCC(=O)c1cccc(O)c1)[C@@H](O)c1ccccc1.Cl | 20 | 24 | 25 | 21 | 34 | 50 | 20 | 25 | 25 | 25 | 3.13 | 21 | 22 | 25 | 22 | 25 | 25 | 20 | 50 | 20 | inhibition zone (IZ) (Malassezia pachydermatis [23]): 14 mm; MIC (Klebsiella pneumoniae [4]): 50 µg/mL; inhibition zone (IZ) (Klebsiella pneumoniae [10]): 20 mm; MIC (Malassezia pachydermatis [24]): > 50 µg/mL |
| C[C@@H](NCCC(=O)c1ccc(Cl)cc1)[C@@H](O)c1ccccc1.Cl | 23 | 36 | 12.5 | 30 | 29 | 6.25 | 24 | 6.25 | 3.13 | 3.13 | 6.25 | 34 | 33 | 3.13 | 32 | 3.13 | 12.5 | 36 | 3.13 | 30 | inhibition zone (IZ) (Malassezia pachydermatis [23]): 15 mm; MIC (Klebsiella pneumoniae [4]): 50 µg/mL; inhibition zone (IZ) (Klebsiella pneumoniae [10]): 18 mm; inhibition zone (IZ) (Candida albicans [25]): 24 mm; MIC (Malassezia pachydermatis [24]): 50 µg/mL; MIC (Candida albicans [26]): 12.5 µg/mL |
| C[C@@H](NCCC(=O)c1ccccc1)[C@@H](O)c1ccccc1.Cl | 22 | 26 | 12.5 | 22 | 28 | 25 | 20 | 25 | 25 | 50 | 12.5 | 20 | 28 | 6.25 | 24 | 12.5 | 25 | 22 | 25 | 22 | inhibition zone (IZ) (Malassezia pachydermatis [23]): 14 mm; MIC (Klebsiella pneumoniae [4]): 50 µg/mL; inhibition zone (IZ) (Klebsiella pneumoniae [10]): 19 mm; inhibition zone (IZ) (Candida albicans [25]): 15 mm; MIC (Malassezia pachydermatis [24]): 50 µg/mL; MIC (Candida albicans [26]): 50 µg/mL |
| Cc1ccc(C(=O)CCN[C@@H](C)[C@H](O)c2ccccc2)cc1.Cl | 20 | 24 | 3.13 | 22 | 22 | 3.13 | 18 | 3.13 | 3.13 | 3.13 | 3.13 | 24 | 23 | 3.13 | 24 | 3.13 | 6.25 | 22 | 3.13 | 23 | inhibition zone (IZ) (Aspergillus flavus [27]): 22 mm; inhibition zone (IZ) (Klebsiella pneumoniae [10]): 13 mm; MIC (Aspergillus flavus [28]): 50 µg/mL |
| C[C@@H](NCCC(=O)c1cccc([N+](=O)[O-])c1)[C@@H](O)c1ccccc1.Cl | 17 | 18 | 50 | 19 | 18 | 50 | 18 | 50 | 50 | 50 | 50 | 17 | 16 | 50 | 20 | 50 | 25 | 14 | 50 | 18 | inhibition zone (IZ) (Malassezia pachydermatis [23]): 21 mm; inhibition zone (IZ) (Candida albicans [25]): 15 mm; MIC (Malassezia pachydermatis [24]): 25 µg/mL; MIC (Candida albicans [26]): 50 µg/mL |
| Cc1ccc(C(=O)CCN[C@H](C)[C@@H](O)c2ccccc2)cc1.Cl | 23 | 31 | 12.5 | 20 | 22 | 12.5 | 22 | 50 | 6.25 | 12.5 | 25 | 27 | 28 | 6.25 | 28 | 3.13 | 12.5 | 24 | 25 | 25 | MIC (Klebsiella pneumoniae [4]): 50 µg/mL; inhibition zone (IZ) (Aspergillus flavus [27]): 20 mm; inhibition zone (IZ) (Klebsiella pneumoniae [10]): 15 mm; MIC (Aspergillus flavus [28]): 50 µg/mL |
| C[C@H](NCCC(=O)c1ccccc1)[C@H](O)c1ccccc1.Cl | 20 | 34 | 25 | 20 | 30 | 12.5 | 18 | 50 | 12.5 | 6.25 | 6.25 | 28 | 27 | 12.5 | 25 | 3.13 | 25 | 27 | 12.5 | 26 | inhibition zone (IZ) (Malassezia pachydermatis [23]): 12 mm; MIC (Klebsiella pneumoniae [4]): 25 µg/mL; inhibition zone (IZ) (Klebsiella pneumoniae [10]): 21 mm; inhibition zone (IZ) (Candida albicans [25]): 16 mm; MIC (Malassezia pachydermatis [24]): > 50 µg/mL; MIC (Candida albicans [26]): 50 µg/mL |
| C[C@H](NCCC(=O)c1ccc(Cl)cc1Cl)[C@H](O)c1ccccc1.Cl | 29 | 35 | 25 | 31 | 35 | 25 | 30 | 25 | 25 | 25 | 25 | 34 | 31 | 25 | 32 | 25 | 25 | 36 | 25 | 30 | MIC (Klebsiella pneumoniae [4]): > 50 µg/mL; inhibition zone (IZ) (Candida albicans [25]): 22 mm; MIC (Aspergillus flavus [28]): 25 µg/mL |
